Test results published in patent publication US6525001B1, “Substituted pyrimidine and pyridine herbicides” (Mid-American Commercialization Corporation, priority 1997, dated 2003).

Legend:
Format in all cases: in vivo
[1] = tested on: duck salad (Heteranthera limosa); test: Test B flood test
In short: (§1)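 Each value is a visual injury score relative to controls, with 10 meaning complete control and 0 no effect. Evaluation took place twelve to sixteen days after the 2-leaf-stage plants were treated and kept in the greenhouse.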

[2] = tested on: rice (Oryza sativa); test: Test B flood test
In short: as §1

[3] = tested on: bamyardgrass (Echinochloa crus-galli); test: Test B flood test
In short: as §1

[4] = tested on: smallflower flatsedge (Cyperus difformis); test: Test B flood test
In short: as §1

[5] = tested on: purple nutsedge (Cyperus rotundus); test: Test B pre-/postemergence; design: key: 0 is no effect; 10 is complete control
In short: (§2)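 Response scores run from 0, meaning no effect, to 10, meaning complete control, assigned by eye relative to controls twelve to sixteen days after spraying. Treatment was both preemergence on planted seed and postemergence on plants at the 1- to 4-leaf stage.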

[6] = tested on: momingglory (Ipomoea hederacea); test: Test B pre-/postemergence; design: key: 0 is no effect; 10 is complete control
In short: as §2

[7] = tested on: rape (Brassica napus); test: Test B pre-/postemergence; design: key: 0 is no effect; 10 is complete control
In short: as §2

[8] = tested on: soybean (Glycine max); test: Test B pre-/postemergence; design: key: 0 is no effect; 10 is complete control
In short: as §2

[9] = tested on: crabgrass (Digitaria sanguinalis); test: Test B pre-/postemergence; design: key: 0 is no effect; 10 is complete control
In short: as §2

[10] = tested on: cocklebur (Xanthium strumarium); test: Test B pre-/postemergence; design: key: 0 is no effect; 10 is complete control
In short: as §2

[11] = tested on: blackgrass (Alopecurus myosuroides); test: Test B pre-/postemergence; design: key: 0 is no effect; 10 is complete control
In short: as §2

[12] = tested on: wild oat (Avena fatua); test: Test B pre-/postemergence; design: key: 0 is no effect; 10 is complete control
In short: as §2

[13] = tested on: broadleaf signalgrass (Brachiaria decumbens); test: Test B pre-/postemergence; design: key: 0 is no effect; 10 is complete control
In short: as §2

[14] = tested on: corn (Zea mays); test: Test B pre-/postemergence; design: key: 0 is no effect; 10 is complete control
In short: as §2

[15] = tested on: velvetleaf (Abutilon theophrasti); test: Test B pre-/postemergence; design: key: 0 is no effect; 10 is complete control
In short: as §2

[16] = tested on: bedstraw (Galium aparine); test: Test B pre-/postemergence; design: key: 0 is no effect; 10 is complete control
In short: as §2

[17] = tested on: pigweed (Amaranthus retroflexus); test: Test B pre-/postemergence; design: key: 0 is no effect; 10 is complete control
In short: as §2

[18] = tested on: giant foxtail (Setaria faberii); test: Test B pre-/postemergence; design: key: 0 is no effect; 10 is complete control
In short: as §2

[19] = tested on: sugar beet (Beta vulgaris); test: Test B pre-/postemergence; design: key: 0 is no effect; 10 is complete control
In short: as §2

[20] = tested on: wheat (Triticum aestivum); test: Test B pre-/postemergence; design: key: 0 is no effect; 10 is complete control
In short: as §2

[21] = Rate 62 g/ha, Postemergence (flood test)
[22] = Rate 125 g/ha, Postemergence, flood test
[23] = Rate 250 g/ha, Postemergence (flood test species)

Compound: Cc1cnc(-c2ccc(F)c(Cl)c2)nc1Cc1cccc(C(F)(F)F)c1 [Compound 25]
- Plant response rating, Ducksalad [1, 21]: 3
- Plant response rating, Ducksalad [1, 22]: 4
- Plant response rating, Ducksalad [1, 23]: 6
- Plant response rating, Rice [2, 21]: 3
- Plant response rating, Rice [2, 22]: 4
- Plant response rating, Rice [2, 23]: 5
- Plant response rating, Barnyardgrass [3, 21]: 3
- Plant response rating, Barnyardgrass [3, 22]: 4
- Plant response rating, Barnyardgrass [3, 23]: 5
- Plant response rating, S. Flatsedge [4, 21]: 3
- Plant response rating, S. Flatsedge [4, 22]: 5
- Plant response rating, S. Flatsedge [4, 23]: 7
- Plant response rating, Nutsedge ([5]; Rate 62 g/ha, Postemergence): 1
- Nutsedge plant response rating ([5]; Rate 62 g/ha, Preemergence): 0
- Plant response rating, Nutsedge ([5]; Rate 125 g/ha, Postemergence): 1
- Nutsedge plant response rating ([5]; Rate 125 g/ha, Preemergence): 0
- Plant response rating, Nutsedge ([5]; Rate 250 g/ha, Postemergence): 2
- Plant response rating, Nutsedge ([5]; Rate 250 g/ha, Preemergence): 0
- Plant response rating, Morningglory ([6]; Rate 62 g/ha, Postemergence): 10
- Morningglory plant response rating ([6]; Rate 62 g/ha, Preemergence): 3
- Plant response rating, Morningglory ([6]; Rate 125 g/ha, Postemergence): 10
- Morningglory plant response rating ([6]; Rate 125 g/ha, Preemergence): 3
- Plant response rating, Morningglory ([6]; Rate 250 g/ha, Postemergence): 10
- Plant response rating, Morningglory ([6]; Rate 250 g/ha, Preemergence): 10
- Plant response rating, Rape ([7]; Rate 62 g/ha, Postemergence): 10
- Rape plant response rating ([7]; Rate 62 g/ha, Preemergence): 2
- Plant response rating, Rape ([7]; Rate 125 g/ha, Postemergence): 10
- Rape plant response rating ([7]; Rate 125 g/ha, Preemergence): 7
- Plant response rating, Rape ([7]; Rate 250 g/ha, Postemergence): 10
- Plant response rating, Rape ([7]; Rate 250 g/ha, Preemergence): 10
- Plant response rating, Soybean ([8]; Rate 62 g/ha, Postemergence): 4
- Soybean plant response rating ([8]; Rate 62 g/ha, Preemergence): 0
- Plant response rating, Soybean ([8]; Rate 125 g/ha, Postemergence): 7
- Soybean plant response rating ([8]; Rate 125 g/ha, Preemergence): 0
- Plant response rating, Soybean ([8]; Rate 250 g/ha, Postemergence): 7
- Plant response rating, Soybean ([8]; Rate 250 g/ha, Preemergence): 1
- Plant response rating, Crabgrass ([9]; Rate 62 g/ha, Postemergence): 7
- Crabgrass plant response rating ([9]; Rate 62 g/ha, Preemergence): 0
- Plant response rating, Crabgrass ([9]; Rate 125 g/ha, Postemergence): 7
- Crabgrass plant response rating ([9]; Rate 125 g/ha, Preemergence): 0
- Plant response rating, Crabgrass ([9]; Rate 250 g/ha, Postemergence): 10
- Plant response rating, Crabgrass ([9]; Rate 250 g/ha, Preemergence): 1
- Plant response rating, Cocklebur ([10]; Rate 62 g/ha, Postemergence): 9
- Cocklebur plant response rating ([10]; Rate 62 g/ha, Preemergence): 0
- Plant response rating, Cocklebur ([10]; Rate 125 g/ha, Postemergence): 9
- Cocklebur plant response rating ([10]; Rate 125 g/ha, Preemergence): 0
- Plant response rating, Cocklebur ([10]; Rate 250 g/ha, Postemergence): 9
- Plant response rating, Cocklebur ([10]; Rate 250 g/ha, Preemergence): 8
- Plant response rating, Blackgrass ([11]; Rate 62 g/ha, Postemergence): 3
- Blackgrass plant response rating ([11]; Rate 62 g/ha, Preemergence): 1
- Plant response rating, Blackgrass ([11]; Rate 125 g/ha, Postemergence): 4
- Blackgrass plant response rating ([11]; Rate 125 g/ha, Preemergence): 5
- Plant response rating, Blackgrass ([11]; Rate 250 g/ha, Postemergence): 8
- Plant response rating, Blackgrass ([11]; Rate 250 g/ha, Preemergence): 8
- Plant response rating, Wild oats ([12]; Rate 62 g/ha, Postemergence): 3
- Wild oats plant response rating ([12]; Rate 62 g/ha, Preemergence): 1
- Plant response rating, Wild oats ([12]; Rate 125 g/ha, Postemergence): 3
- Wild oats plant response rating ([12]; Rate 125 g/ha, Preemergence): 3
- Plant response rating, Wild oats ([12]; Rate 250 g/ha, Postemergence): 4
- Plant response rating, Wild oats ([12]; Rate 250 g/ha, Preemergence): 5
- Plant response rating, B. signalgrass ([13]; Rate 62 g/ha, Postemergence): 2
- B. signalgrass plant response rating ([13]; Rate 62 g/ha, Preemergence): 1
- Plant response rating, B. signalgrass ([13]; Rate 125 g/ha, Postemergence): 3
- B. signalgrass plant response rating ([13]; Rate 125 g/ha, Preemergence): 2
- Plant response rating, B. signalgrass ([13]; Rate 250 g/ha, Postemergence): 3
- Plant response rating, B. signalgrass ([13]; Rate 250 g/ha, Preemergence): 6
- Plant response rating, Corn ([14]; Rate 62 g/ha, Postemergence): 1
- Corn plant response rating ([14]; Rate 62 g/ha, Preemergence): 0
- Plant response rating, Corn ([14]; Rate 125 g/ha, Postemergence): 2
- Corn plant response rating ([14]; Rate 125 g/ha, Preemergence): 0
- Plant response rating, Corn ([14]; Rate 250 g/ha, Postemergence): 3
- Plant response rating, Corn ([14]; Rate 250 g/ha, Preemergence): 0
- Plant response rating, Velvetleaf ([15]; Rate 62 g/ha, Postemergence): 8
- Velvetleaf plant response rating ([15]; Rate 62 g/ha, Preemergence): 0
- Plant response rating, Velvetleaf ([15]; Rate 125 g/ha, Postemergence): 9
- Velvetleaf plant response rating ([15]; Rate 125 g/ha, Preemergence): 0
- Plant response rating, Velvetleaf ([15]; Rate 250 g/ha, Postemergence): 9
- Plant response rating, Velvetleaf ([15]; Rate 250 g/ha, Preemergence): 2
- Plant response rating, Bedstraw ([16]; Rate 62 g/ha, Postemergence): 9
- Bedstraw plant response rating ([16]; Rate 62 g/ha, Preemergence): 1
- Plant response rating, Bedstraw ([16]; Rate 125 g/ha, Postemergence): 10
- Bedstraw plant response rating ([16]; Rate 125 g/ha, Preemergence): 1
- Plant response rating, Bedstraw ([16]; Rate 250 g/ha, Postemergence): 10
- Plant response rating, Bedstraw ([16]; Rate 250 g/ha, Preemergence): 2
- Plant response rating, Redroot pigweed ([17]; Rate 62 g/ha, Postemergence): 10
- Redroot pigweed plant response rating ([17]; Rate 62 g/ha, Preemergence): 1
- Plant response rating, Redroot pigweed ([17]; Rate 125 g/ha, Postemergence): 10
- Redroot pigweed plant response rating ([17]; Rate 125 g/ha, Preemergence): 3
- Plant response rating, Redroot pigweed ([17]; Rate 250 g/ha, Postemergence): 10
- Plant response rating, Redroot pigweed ([17]; Rate 250 g/ha, Preemergence): 9
- Plant response rating, Giant foxtail ([18]; Rate 62 g/ha, Postemergence): 3
- Giant foxtail plant response rating ([18]; Rate 62 g/ha, Preemergence): 1
- Plant response rating, Giant foxtail ([18]; Rate 125 g/ha, Postemergence): 6
- Giant foxtail plant response rating ([18]; Rate 125 g/ha, Preemergence): 4
- Plant response rating, Giant foxtail ([18]; Rate 250 g/ha, Postemergence): 8
- Plant response rating, Giant foxtail ([18]; Rate 250 g/ha, Preemergence): 9
- Plant response rating, Sugarbeets ([19]; Rate 62 g/ha, Postemergence): 10
- Sugarbeets plant response rating ([19]; Rate 62 g/ha, Preemergence): 6
- Plant response rating, Sugarbeets ([19]; Rate 125 g/ha, Postemergence): 10
- Sugarbeets plant response rating ([19]; Rate 125 g/ha, Preemergence): 8
- Plant response rating, Sugarbeets ([19]; Rate 250 g/ha, Postemergence): 10
- Plant response rating, Sugarbeets ([19]; Rate 250 g/ha, Preemergence): 9
- Plant response rating, Wheat ([20]; Rate 62 g/ha, Postemergence): 2
- Wheat plant response rating ([20]; Rate 62 g/ha, Preemergence): 0
- Plant response rating, Wheat ([20]; Rate 125 g/ha, Postemergence): 4
- Wheat plant response rating ([20]; Rate 125 g/ha, Preemergence): 1
- Plant response rating, Wheat ([20]; Rate 250 g/ha, Postemergence): 4
- Plant response rating, Wheat ([20]; Rate 250 g/ha, Preemergence): 2
